Measurements taken from ChEMBL document CHEMBL1201862, “PubChem BioAssay data set” (2004).
pIC50: −log10 of the molar value. Active and inactive are the calls of the source.

How the values were obtained:
[1] = molecular target: Voltage-dependent T-type calcium channel subunit alpha-1H (Homo sapiens, UniProt O95180); test: Cav3.2 T-type channel inhibitors, cell-based, synthetic library set 1, calcium flux (AID 493022); type: functional
[2] = molecular target: Melanin-concentrating hormone receptor 1 (Homo sapiens, UniProt Q99705); test: Late-stage fluorescence-based counterscreen for antagonists of the G-protein coupled receptor 7 (GPR7): cell-based dose response assay to identify antagonists of the melanin-concentrating hormone receptor 1 (MCHR1). [Related pubchem assays (depositor defined):AID1861, AID1880, AID1952, AID2148, AID2251, AID2257, AID485339]; type: functional;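 note: stimulated with 30 nM MCH peptide agonist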
[3] = molecular target: T1, Neuropeptides B/W receptor type 1 (Homo sapiens, UniProt P48145); test: GPR7 antagonist potency, late-stage follow-up, cell-based, fluorescence, dose response (AID 463251); type: functional
T1 sequence (P48145 whole entry): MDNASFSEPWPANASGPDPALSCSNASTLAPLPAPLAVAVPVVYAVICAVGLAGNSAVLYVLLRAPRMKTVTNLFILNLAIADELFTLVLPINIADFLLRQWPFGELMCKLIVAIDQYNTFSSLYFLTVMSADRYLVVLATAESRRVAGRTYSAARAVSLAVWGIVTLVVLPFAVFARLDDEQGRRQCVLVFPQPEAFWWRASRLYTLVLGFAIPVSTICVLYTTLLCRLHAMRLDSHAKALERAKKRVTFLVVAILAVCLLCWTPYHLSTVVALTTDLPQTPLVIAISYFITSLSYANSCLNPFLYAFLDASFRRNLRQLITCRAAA

Nonstructural protein 1 = Nonstructural protein 1 (Influenza A virus, UniProt Q194T2); type: functional, Influenza A virus (A/California/07/2009(H1N1))
Beta-galactosidase [4] = molecular target: T2, Beta-galactosidase (Escherichia coli, UniProt Q8VNN2); test: PubChem AID 485352; type: functional
[5] = Vero E6 cell cytotoxicity, dose response, cytotoxicity control for non-replicating M. tuberculosis project, secondary assay (AID 492998); type: functional, VeroE6; conditions: Vero C1008
cells = type: functional
[6] = molecular target: T3, Kappa-type opioid receptor (Homo sapiens, UniProt P41145); type: functional
[7] = molecular target: T4, Microphthalmia-associated transcription factor (Homo sapiens, UniProt O75030); test: TRPM1 promoter luciferase signal decrease, dose response, MITF inhibitor project, cell-based, SK-MEL-5, cherry-picked, set 3 (AID 493073); type: functional
T4 sequence (O75030 whole entry): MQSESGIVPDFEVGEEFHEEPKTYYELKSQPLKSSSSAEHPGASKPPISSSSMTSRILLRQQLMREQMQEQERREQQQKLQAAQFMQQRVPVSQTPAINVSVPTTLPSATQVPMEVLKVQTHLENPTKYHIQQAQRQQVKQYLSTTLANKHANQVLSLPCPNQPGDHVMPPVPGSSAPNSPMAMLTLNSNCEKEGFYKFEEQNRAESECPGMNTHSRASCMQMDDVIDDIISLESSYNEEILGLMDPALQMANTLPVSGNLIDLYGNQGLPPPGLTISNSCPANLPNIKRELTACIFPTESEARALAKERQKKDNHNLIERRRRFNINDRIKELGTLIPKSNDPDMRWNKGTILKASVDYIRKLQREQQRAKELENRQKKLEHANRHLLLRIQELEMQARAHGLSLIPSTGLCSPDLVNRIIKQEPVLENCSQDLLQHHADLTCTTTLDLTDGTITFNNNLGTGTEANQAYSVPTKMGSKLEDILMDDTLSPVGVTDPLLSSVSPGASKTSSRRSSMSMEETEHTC

INS1 = test: beta cell apoptosis inhibitors, cytokine rescue, dose response, luminescence, retest (AID 449756); type: functional, cell-based; conditions: Rattus norvegicus;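 note: cell death triggered by IL-1 beta plus TNF-alpha plus IFN-gamma mixture; protective hits raise ATP signal compared with cytokine alone wells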
[8] = THP-1 cell cytotoxicity, dose response, cytotoxicity control for non-replicating M. tuberculosis project (AID 489025); type: functional
[9] = molecular target: T3, Kappa-type opioid receptor; type: functional; remark: listed apart in the source
Beta-galactosidase [10] = molecular target: T2, Beta-galactosidase; type: functional
[11] = molecular target: T5, Type-1 angiotensin II receptor (Homo sapiens, UniProt P30556); test: AT1 receptor antagonists, dose response, selectivity assay for APJ receptor antagonist project, cell-based, uHTS hits (AID 463214); type: functional;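 note: antagonist potency against angiotensin II stimulated AT1 response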
T5 sequence (P30556 whole entry): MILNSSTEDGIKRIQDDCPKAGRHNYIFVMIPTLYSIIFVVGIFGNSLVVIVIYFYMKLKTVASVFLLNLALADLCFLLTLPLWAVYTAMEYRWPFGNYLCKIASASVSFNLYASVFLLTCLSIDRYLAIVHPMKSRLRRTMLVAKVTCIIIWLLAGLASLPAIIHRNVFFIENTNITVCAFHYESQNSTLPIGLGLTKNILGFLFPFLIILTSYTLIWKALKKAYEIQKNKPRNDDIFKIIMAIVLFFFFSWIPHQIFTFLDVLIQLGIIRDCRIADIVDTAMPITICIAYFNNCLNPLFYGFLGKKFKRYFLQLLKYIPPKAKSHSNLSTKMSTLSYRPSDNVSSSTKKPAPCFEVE

[12] = THP-1 cell cytotoxicity, dose response, cytotoxicity control for Vif-APOBEC3G degradation inhibitor project, THP-1 cells (AID 1117359); type: functional; conditions: Human immunodeficiency virus 1, THP-1
[13] = HepG2 cell cytotoxicity, dose response, cytotoxicity control for non-replicating M. tuberculosis project (AID 489018); type: functional; conditions: Mycobacterium tuberculosis

T3 sequence (P41145 whole entry): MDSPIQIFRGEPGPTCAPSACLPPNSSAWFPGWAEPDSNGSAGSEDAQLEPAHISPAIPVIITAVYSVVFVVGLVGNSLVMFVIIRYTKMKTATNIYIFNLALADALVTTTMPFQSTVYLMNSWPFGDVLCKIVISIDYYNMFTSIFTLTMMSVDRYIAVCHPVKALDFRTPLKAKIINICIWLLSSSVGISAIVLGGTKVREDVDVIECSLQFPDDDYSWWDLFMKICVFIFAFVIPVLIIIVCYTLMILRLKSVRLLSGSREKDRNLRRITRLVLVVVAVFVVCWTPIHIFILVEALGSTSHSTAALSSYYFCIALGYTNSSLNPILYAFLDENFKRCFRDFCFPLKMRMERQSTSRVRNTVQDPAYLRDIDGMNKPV
T2 sequence (Q8VNN2 whole entry): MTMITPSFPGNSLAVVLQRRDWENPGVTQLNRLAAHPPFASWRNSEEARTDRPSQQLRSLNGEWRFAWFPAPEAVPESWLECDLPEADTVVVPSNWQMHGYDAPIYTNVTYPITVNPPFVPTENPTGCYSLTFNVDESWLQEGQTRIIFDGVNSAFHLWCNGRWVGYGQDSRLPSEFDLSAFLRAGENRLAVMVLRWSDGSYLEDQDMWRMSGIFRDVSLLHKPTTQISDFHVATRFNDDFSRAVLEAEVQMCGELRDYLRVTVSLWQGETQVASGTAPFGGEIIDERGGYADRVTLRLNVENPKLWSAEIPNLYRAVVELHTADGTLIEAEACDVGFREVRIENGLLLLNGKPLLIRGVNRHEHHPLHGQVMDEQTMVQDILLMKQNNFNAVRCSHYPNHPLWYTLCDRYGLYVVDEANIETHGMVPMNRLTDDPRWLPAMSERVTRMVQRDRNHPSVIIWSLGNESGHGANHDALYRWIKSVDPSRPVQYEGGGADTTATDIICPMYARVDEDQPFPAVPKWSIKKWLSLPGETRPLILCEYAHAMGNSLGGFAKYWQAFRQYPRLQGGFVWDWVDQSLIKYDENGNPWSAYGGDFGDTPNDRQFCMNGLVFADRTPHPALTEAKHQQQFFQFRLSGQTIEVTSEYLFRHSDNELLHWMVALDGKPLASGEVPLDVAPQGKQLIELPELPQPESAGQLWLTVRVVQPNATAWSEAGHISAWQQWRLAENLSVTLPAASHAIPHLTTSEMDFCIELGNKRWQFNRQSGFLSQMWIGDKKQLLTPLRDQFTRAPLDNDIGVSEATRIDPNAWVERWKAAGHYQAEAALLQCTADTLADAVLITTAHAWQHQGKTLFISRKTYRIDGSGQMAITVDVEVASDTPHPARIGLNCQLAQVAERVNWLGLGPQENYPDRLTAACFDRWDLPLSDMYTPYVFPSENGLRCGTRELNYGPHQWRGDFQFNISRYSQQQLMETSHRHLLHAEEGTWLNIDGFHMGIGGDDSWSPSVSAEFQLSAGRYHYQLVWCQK
Sequence of Melanin-concentrating hormone receptor 1 (Q99705 whole entry): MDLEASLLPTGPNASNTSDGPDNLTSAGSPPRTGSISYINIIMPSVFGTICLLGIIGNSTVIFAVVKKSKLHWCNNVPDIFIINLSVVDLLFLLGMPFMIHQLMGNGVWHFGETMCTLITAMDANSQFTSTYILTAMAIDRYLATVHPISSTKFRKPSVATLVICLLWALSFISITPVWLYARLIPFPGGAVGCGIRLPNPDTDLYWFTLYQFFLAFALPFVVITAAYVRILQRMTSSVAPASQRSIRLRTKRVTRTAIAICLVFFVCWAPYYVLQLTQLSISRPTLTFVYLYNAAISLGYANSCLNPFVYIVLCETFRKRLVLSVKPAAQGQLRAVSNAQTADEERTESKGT
Sequence of Voltage-dependent T-type calcium channel subunit alpha-1H (O95180 whole entry): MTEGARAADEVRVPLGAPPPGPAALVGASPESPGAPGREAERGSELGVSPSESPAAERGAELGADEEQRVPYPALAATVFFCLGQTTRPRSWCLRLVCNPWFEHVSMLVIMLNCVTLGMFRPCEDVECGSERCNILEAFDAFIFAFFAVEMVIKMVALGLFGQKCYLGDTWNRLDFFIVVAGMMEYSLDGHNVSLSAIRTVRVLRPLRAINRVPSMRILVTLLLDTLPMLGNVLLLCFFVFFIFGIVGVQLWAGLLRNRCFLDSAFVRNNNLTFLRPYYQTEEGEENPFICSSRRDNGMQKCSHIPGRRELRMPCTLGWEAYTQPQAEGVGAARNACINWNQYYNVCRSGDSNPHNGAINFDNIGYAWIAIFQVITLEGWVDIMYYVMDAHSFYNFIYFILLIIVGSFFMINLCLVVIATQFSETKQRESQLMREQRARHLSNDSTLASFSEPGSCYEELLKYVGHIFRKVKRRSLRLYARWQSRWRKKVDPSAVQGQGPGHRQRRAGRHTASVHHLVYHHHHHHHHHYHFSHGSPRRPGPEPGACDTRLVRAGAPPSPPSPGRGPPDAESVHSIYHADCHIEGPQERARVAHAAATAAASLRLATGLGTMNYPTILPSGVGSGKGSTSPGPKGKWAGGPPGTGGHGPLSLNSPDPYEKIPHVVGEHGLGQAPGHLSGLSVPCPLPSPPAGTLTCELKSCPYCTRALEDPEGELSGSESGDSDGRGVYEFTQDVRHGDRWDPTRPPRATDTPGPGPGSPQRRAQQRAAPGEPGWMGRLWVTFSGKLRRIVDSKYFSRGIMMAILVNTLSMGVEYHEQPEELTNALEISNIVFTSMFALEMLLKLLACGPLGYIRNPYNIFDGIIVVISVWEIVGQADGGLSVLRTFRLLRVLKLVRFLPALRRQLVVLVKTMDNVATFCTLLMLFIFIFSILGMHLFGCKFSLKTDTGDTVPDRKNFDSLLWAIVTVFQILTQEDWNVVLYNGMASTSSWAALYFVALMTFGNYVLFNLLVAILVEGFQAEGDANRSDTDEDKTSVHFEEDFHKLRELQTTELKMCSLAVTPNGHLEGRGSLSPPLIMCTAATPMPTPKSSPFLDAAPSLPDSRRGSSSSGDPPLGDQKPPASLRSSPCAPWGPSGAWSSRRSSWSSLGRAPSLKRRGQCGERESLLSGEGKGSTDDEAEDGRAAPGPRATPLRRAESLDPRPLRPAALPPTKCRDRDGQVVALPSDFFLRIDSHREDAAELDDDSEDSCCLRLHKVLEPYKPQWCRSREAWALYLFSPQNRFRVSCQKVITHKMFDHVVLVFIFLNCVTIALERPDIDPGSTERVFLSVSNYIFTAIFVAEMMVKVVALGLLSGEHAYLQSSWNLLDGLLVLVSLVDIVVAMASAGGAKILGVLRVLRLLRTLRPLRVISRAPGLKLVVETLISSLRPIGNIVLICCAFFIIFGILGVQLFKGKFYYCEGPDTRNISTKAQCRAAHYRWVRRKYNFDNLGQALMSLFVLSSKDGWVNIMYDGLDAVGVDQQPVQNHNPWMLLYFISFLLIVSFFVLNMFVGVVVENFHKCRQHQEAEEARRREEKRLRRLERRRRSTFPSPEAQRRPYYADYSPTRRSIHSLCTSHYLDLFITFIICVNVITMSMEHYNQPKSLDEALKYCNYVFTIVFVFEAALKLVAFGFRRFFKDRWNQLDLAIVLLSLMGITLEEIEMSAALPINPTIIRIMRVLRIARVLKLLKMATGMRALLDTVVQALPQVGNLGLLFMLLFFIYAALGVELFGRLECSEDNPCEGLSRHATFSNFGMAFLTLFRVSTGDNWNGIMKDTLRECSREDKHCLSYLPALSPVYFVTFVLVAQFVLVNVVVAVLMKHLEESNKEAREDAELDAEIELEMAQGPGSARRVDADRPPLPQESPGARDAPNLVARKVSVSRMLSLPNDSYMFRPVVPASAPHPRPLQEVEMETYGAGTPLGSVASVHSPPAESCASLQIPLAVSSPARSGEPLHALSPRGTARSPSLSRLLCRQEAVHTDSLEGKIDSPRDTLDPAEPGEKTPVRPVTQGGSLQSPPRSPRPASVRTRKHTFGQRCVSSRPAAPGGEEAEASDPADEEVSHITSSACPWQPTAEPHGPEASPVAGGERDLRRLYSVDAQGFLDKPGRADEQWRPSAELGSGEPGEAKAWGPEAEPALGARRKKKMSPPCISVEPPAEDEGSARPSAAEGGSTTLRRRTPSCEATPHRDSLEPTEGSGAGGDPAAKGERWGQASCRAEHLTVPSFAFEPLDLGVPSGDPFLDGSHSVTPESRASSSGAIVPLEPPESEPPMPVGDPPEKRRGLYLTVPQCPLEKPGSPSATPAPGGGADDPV
Sequence of Nonstructural protein 1 (Q194T2 whole entry): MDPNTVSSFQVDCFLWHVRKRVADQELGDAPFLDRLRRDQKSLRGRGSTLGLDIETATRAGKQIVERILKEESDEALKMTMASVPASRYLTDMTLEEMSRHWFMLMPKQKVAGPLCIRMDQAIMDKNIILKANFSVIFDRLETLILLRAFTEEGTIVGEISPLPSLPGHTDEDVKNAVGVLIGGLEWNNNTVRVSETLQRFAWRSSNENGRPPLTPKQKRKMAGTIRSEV

For `O=C(COc1ccccc1Cl)Nc1nnc(-c2ccc3c(c2)CCCC3)o1`, the EC50 [1] was 10 µM (active).
With `COc1ccc(Oc2c(Cl)cnn(-c3cc(C(F)(F)F)cc(C(F)(F)F)c3)c2=O)cc1` the IC50 [2] was 1.5 µM (active) and the IC50 [3] was 1.2 µM (active).
With `C/C(=N\NC(=O)C(C)Oc1ccc([N+](=O)[O-])cc1)c1ccccn1` (stereo unspecified) the IC50 (Nonstructural protein 1) was 6.88 µM (active), the EC50 (Beta-galactosidase [4]) was > 40 µM (inactive) and the CC50 [5] was 3.54 µM (active). The IC50 (cells) was 6.28 µM (active), the pIC50 [6] was < 4.49 and the AC50 [7] was 2.38 µM (active). The AC50 (INS1) was 1.12 µM (active), the CC50 [8] was 1.54 µM (active) and the IC50 [9] was 3.19 µM (active). For the same molecule, the EC50 (Beta-galactosidase [10]) was > 31.5 µM (inactive), the IC50 [11] was 9.48 µM (active) and the CC50 [12] was 1.8 µM (active). For the same molecule, the CC50 [13] was 8.26 µM (active).
